The target in experiment [1] is T1, K-Ras G12D (Homo sapiens, UniProt P01116, G12D).
T1 construct: made in house; host or cells: E. coli BL21 (DE3)
Put plainly: HTRF resonance energy transfer assay, K-Ras G12D / SOS1 interaction. Type of experiment: biochemical. The conditions noted are these: HTRF assay of Example 5; read-out: IC50 against K-Ras G12D. In short, it runs like this: (§1)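 Buffer about 5 mM HEPES pH 7.4 with ~150 mM NaCl, ~1 mM DTT, 0.05% BSA, 0.0025% (v/v) Igepal. Protein constructs used at molarity matching the IC50 range studied (e.g. ~500 nM). FRET between tagged K-Ras and hSOS1 measured after short incubation.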
A general note: TR-FRET usually uses a lanthanide donor and a delayed reading to cut background.

Experiment [2] has as its system GP2D cells. Put plainly: Ras cellular assay, growth of cells with K-Ras G12D mutation (CellTiter-Glo). Format: cell-based. Particulars: cell growth, Example 9, G12D mutation, read-out: IC50 against GP2D cells. In general terms: ATP-based viability assays read luminescence as a measure of living cells.
Experiment [3] deals with T2, K-Ras G12S (Homo sapiens, UniProt P01116, G12S).
T2 construct: made in house; host or cells: E. coli BL21 (DE3)
Put plainly: HTRF resonance energy transfer assay, K-Ras G12S / SOS1 interaction. The conditions noted are these: HTRF assay of Example 5; read-out: IC50 against K-Ras G12S. Format: biochemical. In short, it runs like this: as §1

Experiment [4] addresses T3, K-Ras WT (Homo sapiens, UniProt P01116).
T3 construct: made in house; host or cells: E. coli BL21 (DE3)
Put plainly: HTRF resonance energy transfer assay, K-Ras WT / SOS1 interaction. Format: biochemical. The conditions noted are these: HTRF assay of Example 5; read-out: IC50 against K-Ras WT. An outline of the steps:
as §1

Experiment [5] relates to A549 cells. Put plainly: Ras cellular assay, growth of cells with K-Ras G12S mutation (CellTiter-Glo). Format: cell-based. Particulars: Homo sapiens, cell growth, Example 9, G12S mutation, read-out: IC50 against A549 cells. In short, it runs like this: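 Growth inhibition IC50 values come from four-parameter fits of CellTiter-Glo luminescence, read about 6 days after compound addition. G12S-mutant A549 cells (e.g. 800/well, RPMI-1640 + 10% heat-inactivated FBS) were plated in tissue-culture-treated or ultra-low-attachment 384-well format. Dosing began the following day with serial dilutions, e.g. 10 points, 3-fold.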

Experiment [6] has as its system SW620 cells. Put plainly: Ras cellular assay, growth of cells with K-Ras G12V mutation (CellTiter-Glo). Particulars: Homo sapiens, SW-620; cell growth, Example 9, G12V mutation; read-out: IC50 against SW620 cells. Type of experiment: cell-based. An outline of the steps: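 IC50 values came from a four-parameter fit of CellTiter-Glo viability, read roughly 6 days after dosing with e.g. a 10-point threefold dilution series. G12V-mutant SW620 cells (e.g. 800 per well) had been plated the previous day in RPMI-1640/10% heat-inactivated FBS, on tissue culture-treated or ultra-low attachment plates.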

Experiment [7] deals with T4, K-Ras G12V (Homo sapiens, UniProt P01116, G12V).
T4 construct: made in house; host or cells: E. coli BL21 (DE3)
Put plainly: HTRF resonance energy transfer assay, K-Ras G12V / SOS1 interaction. Format: biochemical. Particulars: HTRF assay of Example 5; read-out: IC50 against K-Ras G12V. In short, it runs like this:
as §1

Structures are written as SMILES.

Our source for the IC50 values is patent US12209102B2, “Heterocyclic compounds and uses thereof” (Kumquat Biosciences Inc., priority 2022, dated 2025).

In general, IC50 refers to the concentration at which inhibition is half-maximal.

T4 sequence (P01116 1-188 isoform P01116-2 G12V): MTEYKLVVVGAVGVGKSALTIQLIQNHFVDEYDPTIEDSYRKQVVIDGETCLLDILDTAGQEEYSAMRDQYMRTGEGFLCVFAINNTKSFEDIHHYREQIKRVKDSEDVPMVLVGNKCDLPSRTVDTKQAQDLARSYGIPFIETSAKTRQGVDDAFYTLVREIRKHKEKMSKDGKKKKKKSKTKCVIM
T3 sequence (P01116 1-188 isoform P01116-2): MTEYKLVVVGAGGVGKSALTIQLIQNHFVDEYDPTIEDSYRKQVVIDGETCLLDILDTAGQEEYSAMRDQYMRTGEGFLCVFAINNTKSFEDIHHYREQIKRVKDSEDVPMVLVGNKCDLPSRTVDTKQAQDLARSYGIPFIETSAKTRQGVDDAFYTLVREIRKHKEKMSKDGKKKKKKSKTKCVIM
T1 sequence (P01116 1-188 isoform P01116-2 G12D): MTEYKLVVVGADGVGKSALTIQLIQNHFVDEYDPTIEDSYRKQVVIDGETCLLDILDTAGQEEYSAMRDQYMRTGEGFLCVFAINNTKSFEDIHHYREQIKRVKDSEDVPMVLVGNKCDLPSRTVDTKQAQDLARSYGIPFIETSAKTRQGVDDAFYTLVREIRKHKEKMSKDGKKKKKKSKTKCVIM
T2 sequence (P01116 1-188 isoform P01116-2 G12S): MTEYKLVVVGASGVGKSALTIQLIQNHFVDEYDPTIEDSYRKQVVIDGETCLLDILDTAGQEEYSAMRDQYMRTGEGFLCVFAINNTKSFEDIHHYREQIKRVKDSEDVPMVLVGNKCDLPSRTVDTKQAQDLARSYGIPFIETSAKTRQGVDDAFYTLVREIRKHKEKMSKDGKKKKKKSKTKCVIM

`COC1CC(C(=O)N2CCC(N3CCOc4c(Cl)c(-c5ccc(F)c6sc(N)c(C#N)c56)c(F)c5nc(OC[C@@]67CCCN6C[C@H](F)C7)nc3c45)C2)C1` (stereo partly drawn) [Compound 881, 2-amino-4-(8-chloro-10-fluoro-2-(((2R,7aS)-2-fluorotetrahydro-1H-pyrrolizin-7a(5H)-yl)methoxy)-4-(1-(3-methoxycyclobutane-1-carbonyl)pyrrolidin-3-yl)-5,6-dihydro-4H-[1,4]oxazepino[5,6,7-de]quinazolin-9-yl)-7-fluorobenzo[b]thiophene-3-carbonitrile]: the IC50 in experiment [1] was below 100 nM; in experiment [2] it was below 500 nM; in experiment [3], below 100 nM; in experiment [4], below 100 nM; in experiment [5], below 5000 nM; in experiment [6], below 5000 nM. For the same molecule, the IC50 in experiment [7] is below 100 nM.

Turning to `CC(C)[C@H]1COc2c(Cl)c(-c3ccc(F)c4sc(N)c(C#N)c34)c(F)c3nc(OC[C@@]45CCCN4C[C@H](F)C5)nc(c23)N1CC(F)F` [Compound 884, 2-amino-4-((5S)-8-chloro-4-(2,2-difluoroethyl)-10-fluoro-2-(((2R,7aS)-2-fluorotetrahydro-1H-pyrrolizin-7a(5H)-yl)methoxy)-5-isopropyl-5,6-dihydro-4H-[1,4]oxazepino[5,6,7-de]quinazolin-9-yl)-7-fluorobenzo[b]thiophene-3-carbonitrile], the IC50 in experiment [1] was below 100 nM; in experiment [2], below 500 nM; in experiment [3], below 100 nM; in experiment [4], below 100 nM; in experiment [5], below 5000 nM; in experiment [6], below 5000 nM. In addition, the half-inhibitory concentration (IC50) in experiment [7] was below 100 nM.

In the case of `CC1COc2c(Cl)c(-c3ccc(F)c4sc(N)c(C#N)c34)c(F)c3nc(OC[C@@]45CCCN4C[C@H](F)C5)nc(c23)N1[C@@H]1CCOC1` (stereo partly drawn) [Compound 888, 2-amino-4-(8-chloro-10-fluoro-2-(((2R,7aS)-2-fluorotetrahydro-1H-pyrrolizin-7a(5H)-yl)methoxy)-5-methyl-4-((R)-tetrahydrofuran-3-yl)-5,6-dihydro-4H-[1,4]oxazepino[5,6,7-de]quinazolin-9-yl)-7-fluorobenzo[b]thiophene-3-carbonitrile], the 50% inhibitory concentration (IC50) in experiment [1] was below 100 nM; in experiment [2], below 500 nM; in experiment [3] it was below 100 nM; in experiment [4] it was below 100 nM; in experiment [5], below 5000 nM; in experiment [6], below 5000 nM. For the same molecule, in experiment [7], the IC50 is below 100 nM.

For `N#Cc1c(N)sc2c(F)ccc(-c3c(Cl)c4c5c(nc(OC[C@@]67CCCN6C[C@H](F)C7)nc5c3F)N(C3CC3)CCO4)c12` [Compound 891, 2-amino-4-(8-chloro-4-cyclopropyl-10-fluoro-2-(((2R,7aS)-2-fluorotetrahydro-1H-pyrrolizin-7a(5H)-yl)methoxy)-5,6-dihydro-4H-[1,4]oxazepino[5,6,7-de]quinazolin-9-yl)-7-fluorobenzo[b]thiophene-3-carbonitrile], the IC50 in experiment [1] is below 100 nM; in experiment [2], below 500 nM; in experiment [3], below 100 nM; in experiment [4], below 100 nM; in experiment [5], below 5000 nM; in experiment [6], below 5000 nM. Also, the IC50 in experiment [7] is below 100 nM.

`N#Cc1c(N)sc2c(F)ccc(-c3c(Cl)c4c5c(nc(OC[C@@]67CCCN6C[C@H](F)C7)nc5c3F)N(C3CC5CCC3N5C=O)CCO4)c12` (stereo partly drawn) [Compound 892, 2-amino-4-(8-chloro-10-fluoro-2-(((2R,7aS)-2-fluorotetrahydro-1H-pyrrolizin-7a(5H)-yl)methoxy)-4-(7-formyl-7-azabicyclo[2.2.1]heptan-2-yl)-5,6-dihydro-4H-[1,4]oxazepino[5,6,7-de]quinazolin-9-yl)-7-fluorobenzo[b]thiophene-3-carbonitrile]: the IC50 in experiment [1] was below 100 nM; in experiment [2] it was below 500 nM; in experiment [3] it was below 100 nM; in experiment [4] it was below 100 nM; in experiment [5], below 5000 nM; in experiment [6] it was below 5000 nM. Moreover, the IC50 in experiment [7] was below 100 nM.

As to `N#Cc1c(N)sc2c(F)ccc(-c3c(Cl)c4c5c(nc(OC[C@@]67CCCN6C[C@H](F)C7)nc5c3F)N(C3CCn5nccc5C3)CCO4)c12` (stereo partly drawn) [Compound 893, 2-amino-4-(8-chloro-10-fluoro-2-(((2R,7aS)-2-fluorotetrahydro-1H-pyrrolizin-7a(5H)-yl)methoxy)-4-(4,5,6,7-tetrahydropyrazolo[1,5-a]pyridin-5-yl)-5,6-dihydro-4H-[1,4]oxazepino[5,6,7-de]quinazolin-9-yl)-7-fluorobenzo[b]thiophene-3-carbonitrile], the IC50 was below 100 nM in experiment [1]; below 500 nM in experiment [2]; below 100 nM in experiment [3]; below 100 nM in experiment [4]; below 5000 nM in experiment [5]; below 5000 nM in experiment [6]. Besides, the IC50 in experiment [7] is below 100 nM.

On to `CN1c2nc(OC[C@@]34CCCN3C[C@H](F)C4)nc3c(F)c(-c4ccc(F)c5sc(N)c(C#N)c45)c(Cl)c(c23)OCC1CO` (stereo partly drawn) [Compound 900, 2-amino-4-(8-chloro-10-fluoro-2-(((2R,7aS)-2-fluorotetrahydro-1H-pyrrolizin-7a(5H)-yl)methoxy)-5-(hydroxymethyl)-4-methyl-5,6-dihydro-4H-[1,4]oxazepino[5,6,7-de]quinazolin-9-yl)-7-fluorobenzo[b]thiophene-3-carbonitrile], for which the IC50 was below 100 nM in experiment [1]; below 500 nM in experiment [2]; below 100 nM in experiment [3]; below 100 nM in experiment [4]; below 5000 nM in experiment [5]; below 5000 nM in experiment [6]. In addition, the IC50 in experiment [7] was below 100 nM.

Turning to `C[C@H](Oc1nc2c3c(c(Cl)c(-c4ccc(F)c5sc(N)c(C#N)c45)c(F)c3n1)OCCN2CC(F)F)[C@@H]1CCCN1C` [Compound 901, 2-amino-4-(8-chloro-4-(2,2-difluoroethyl)-10-fluoro-2-((S)-1-((S)-1-methylpyrrolidin-2-yl)ethoxy)-5,6-dihydro-4H-[1,4]oxazepino[5,6,7-de]quinazolin-9-yl)-7-fluorobenzo[b]thiophene-3-carbonitrile], the IC50 in experiment [1] was below 100 nM; in experiment [2], below 500 nM; in experiment [3], below 100 nM; in experiment [4] it was below 100 nM; in experiment [5] it was below 5000 nM; in experiment [6] it was below 5000 nM. Also, the IC50 in experiment [7] is below 100 nM.

For the molecule `N#Cc1c(N)sc2c(F)ccc(-c3c(Cl)c4c5c(nc(OC[C@@]67CCCN6C[C@H](F)C7)nc5c3F)N(CC(F)F)[C@@H](CN)CO4)c12` [Compound 914, 2-amino-4-((5S)-5-(aminomethyl)-8-chloro-4-(2,2-difluoroethyl)-10-fluoro-2-(((2R,7aS)-2-fluorotetrahydro-1H-pyrrolizin-7a(5H)-yl)methoxy)-5,6-dihydro-4H-[1,4]oxazepino[5,6,7-de]quinazolin-9-yl)-7-fluorobenzo[b]thiophene-3-carbonitrile], the half-inhibitory concentration (IC50) was below 100 nM in experiment [1]; below 500 nM in experiment [2]; below 100 nM in experiment [3]; below 100 nM in experiment [4]; below 5000 nM in experiment [5]; below 5000 nM in experiment [6]. Besides, the IC50 in experiment [7] was below 100 nM.
